Results taken from patent US20090209525A1, “ENABLING METHODS TO IDENTIFY ALLOSTERIC MODULATORS OF RECEPTOR ACTIVITY” (priority 2006, published 2009).
Residue numbers refer to the chain shown, from its start. Like-named read-outs stand apart in the source and are kept apart here.

Experiments:
M1 W101A receptor [1] = molecular target: T1, M1 W101A receptor (Rattus norvegicus, UniProt P08482, W101A); assay: R-SAT HTS on M1 W101A receptor; format: cell-based; conditions: compound at 3 μM, triplicate retest, activity over basal cellular response
T1 construct: expressed in transfected cells
T1 sequence (P08482 1-460 W101A): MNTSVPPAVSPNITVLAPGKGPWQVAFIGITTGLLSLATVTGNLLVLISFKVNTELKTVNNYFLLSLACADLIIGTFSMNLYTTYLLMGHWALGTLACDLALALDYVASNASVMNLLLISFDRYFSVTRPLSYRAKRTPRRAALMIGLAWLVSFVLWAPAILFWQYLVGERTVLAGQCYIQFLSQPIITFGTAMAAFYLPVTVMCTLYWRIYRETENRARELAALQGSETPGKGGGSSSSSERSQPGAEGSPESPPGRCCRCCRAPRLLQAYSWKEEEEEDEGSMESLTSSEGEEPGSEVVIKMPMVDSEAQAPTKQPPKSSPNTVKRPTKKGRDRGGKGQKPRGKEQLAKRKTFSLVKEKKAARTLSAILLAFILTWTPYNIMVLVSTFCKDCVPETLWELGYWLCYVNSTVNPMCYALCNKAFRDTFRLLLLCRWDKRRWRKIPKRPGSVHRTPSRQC
Description: (§1) NIH-3T3 cells were grown in 96-well tissue culture plates to 70 to 80% confluence in Dulbecco's modified essential media (DMEM) supplemented with 100 units/ml penicillin, 100 micrograms/ml streptomycin, 0.3 mg/ml L-glutamine (1% PSG, GIBCO) and 10% calf serum (Sigma-Aldrich). Cells were transfected for 18 h with DMEM containing 0.08 micrograms/ml receptor DNA and 0.3 micrograms/ml pSI-Bgal (Promega, Madison Wis.), 0.5% v/v Polyfect (Qiagen, Valencia Calif.). Medium was replaced with DMEM containing 1% PSG, 0.5% calf serum, 2% cyto-sf3 (Kemp Biotechnologies, Frederick, Md.), and varying concentrations of ligand. […] Cells were grown in a humidified atmosphere with 5% ambient CO2 for 5 days. Medium was removed from the plates, and beta-galactosidase activity was measured by the addition of o-nitrophenyl -d-galactopyranoside in phosphate-buffered saline with 5% Nonidet P-40.
Cells were contacted with over 280,000 compounds at a concentration of 3 μM.

M1 W101A receptor [2] = molecular target: T1, M1 W101A receptor; assay: R-SAT HTS on M1 W101A receptor; format: cell-based; conditions: compound at 300 nM, triplicate retest, activity over basal cellular response
[3] = molecular target: T2, rat M1 wild-type receptors (Rattus norvegicus, UniProt P08482); assay: R-SAT functional assay, wild-type receptor; format: cell-based
T2 construct: expressed in transfected cells
T2 sequence (P08482 1-460): T1 sequence (P08482 1-460 W101A) with A101W
Description: (§2) Cells are co-transfected for 18 h with DMEM containing 0.08 micrograms/ml of an expression vector for the expression of the mutant receptor and 0.3 micrograms/ml pSI-Bgal (Promega, Madison Wis.), and 0.5% v/v Polyfect (Qiagen, Valencia Calif.), as recommended by the manufacturer. On day three, the medium is replaced with DMEM containing 1% PSG, 0.5% calf serum, 2% cyto-sf3 (Kemp Biotechnologies, Frederick, Md.), and varying concentrations of the compounds to be tested. Cells are grown in a humidified atmosphere with 5% ambient CO2 for 5 days. The media is removed from the plates, and beta-galactosidase activity is measured by the addition of o-nitrophenyl -d-galactopyranoside in phosphate-buffered saline with 5% Nonidet P-40. […] The following equation is fitted to the data using GraphPad Prism software (San Diego, Calif.):
as §1
(§3) Receptor Selection and Amplification (R-SAT™) Assays: R-SAT™ functional assays were carried out as follows. NIH-3T3 cells were grown in 96-well tissue culture plates to 70 to 80% confluence in Dulbecco's modified essential media (DMEM) supplemented with 100 units/ml penicillin, 100 micrograms/ml streptomycin, 0.3 mg/ml L-glutamine (1% PSG, GIBCO) and 10% calf serum (Sigma-Aldrich). Cells were transfected for 18 h with DMEM containing 0.08 micrograms/ml receptor DNA and 0.3 micrograms/ml pSI-Bgal (Promega, Madison Wis.), 0.5% v/v Polyfect (Qiagen, Valencia Calif.). The transfected cells were frozen away. Cells were thawed and added to 96 well plates with DMEM containing 1% PSG, 0.5% calf serum, 2% cyto-sf3 (Kemp Biotechnologies, Frederick, Md.), and varying concentrations of ligand.
(§4) In an effort to further characterize monoamine modulators, we used a panel of mutant muscarininc M1 receptors to analyze the activity and potency of orthosteric modulators and various allosteric modulators at those receptors.

rat M1 W101A receptor = molecular target: T3, rat M1 W101A receptor (Rattus norvegicus, UniProt P08482, W101A); assay: R-SAT functional assay, W101A mutant; format: cell-based; conditions: M1 W101A
T3 construct: expressed in transfected cells
T3 sequence (P08482 1-460 W101A): T1 sequence (P08482 1-460 W101A)
Description: as §2, §1, §3, §4

rat M1 Y381A receptor = molecular target: T4, rat M1 Y381A receptor (Rattus norvegicus, UniProt P08482, Y381A); assay: R-SAT functional assay, Y381A mutant; format: cell-based
T4 construct: expressed in transfected cells; host or cells: NIH-3T3
T4 sequence (P08482 1-460 Y381A): T1 sequence (P08482 1-460 W101A) with A101W, Y381A
Description: as §2, §1, §3, §4

M1 Y381A receptor = molecular target: T5, M1 Y381A receptor (Rattus norvegicus, UniProt P08482, Y381A); assay: R-SAT antagonism of muscarinic agonists, Y381A; format: cell-based; conditions: M1 YS81A as printed; maximal inhibition of NDMC (3 μM) response
T5 construct: expressed in transfected cells; host or cells: NIH-3T3
T5 sequence (P08482 1-460 Y381A): T1 sequence (P08482 1-460 W101A) with A101W, Y381A
Description: as §3

M1 Y381 mutant receptor = molecular target: T6, M1 Y381 mutant receptor (Rattus norvegicus, UniProt P08482, Y381A); conditions: result in words; FIGS. 8A-8C
T6 sequence (P08482 1-460 Y381A): T1 sequence (P08482 1-460 W101A) with A101W, Y381A

[4] = Table 4, M1 wild type, maximum response relative to xanomeline
[5] = Table 4, maximum response relative to xanomeline
[6] = Table 4, M1 Y381A, maximum response relative to xanomeline
[7] = Table 10, M1 Wild-Type, maximum response relative to carbachol
[8] = Table 10, M1 Y381A, maximum response relative to AC-42

Row | 3 μM Avg. (M1 W101A receptor [1]) | 300 nM Avg (M1 W101A receptor [2]) | SMILES | other results
1 | 3.23 | 3.86 | CCCCC1CCN(CCCN2C(=O)COc3ccccc32)CC1.O=C(O)C(=O)O | 
2 | 3.34 | 3.30 | CCCCC1CCN(CCCN2C(=O)CSc3ccccc32)CC1.O=C(O)C(=O)O | 
3 |  |  | CCCCCCOc1nsnc1C1=CCCN(C)C1 [Xanomeline] | % Eff [3, 4]: 100%; % Eff (rat M1 W101A receptor; [5]): 106%; % Eff (rat M1 Y381A receptor; [6]): 100%
4 | 4.17 | 3.81 | CCCC=C1CCN(C[C@@H](C)CN2C(=O)COc3ccc(F)cc32)CC1.O=C(O)C(=O)O | 
5 | 4.19 | 3.32 | CCCCC1CCN(CCCN2C(=O)CCc3cc(OC)ccc32)CC1.O=C(O)C(=O)O | 
6 | 3.67 | 3.26 | CCCCC1CCN(CCn2c(=O)[nH]c3ccccc32)CC1 | 
7 | 3.85 | 3.81 | CCCCC1CCN(CCCn2c(=O)ccc3cc(F)ccc32)CC1 | 
8 | 4.50 | 4.34 | CCCCC1CCN(C[C@@H](C)Cn2c(=O)ccc3ccccc32)CC1.O=C(O)C(O)C(O)C(=O)O | 
9 | 4.37 | 4.29 | CCCOC1CCN(C[C@@H](C)Cn2c(=O)ccc3ccccc32)CC1.O=C(O)C(=O)O | 
10 |  |  | O=C1CCCN1CC#CCN1CCCC1 [Oxotremorine] | % Eff [3, 4]: 91%; % Eff [3, 7]: 91%; EC50 ([3]; pEC50, Table 4, M1 wild type): 79.4 nM; EC50 ([3]; pEC50, Table 10, M1 Wild-Type, NA = non-active): 31.6 nM; % Eff (rat M1 W101A receptor; [5]): 87%; % Eff (rat M1 W101A receptor; Table 10, maximum response relative to AC-42): 120%; EC50 (rat M1 W101A receptor; pEC50, Table 4): 3160 nM; EC50 (rat M1 W101A receptor; pEC50, Table 10): 2510 nM; EC50 (rat M1 Y381A receptor): 3980 nM; % Eff (rat M1 Y381A receptor; [6]): 8%; % Eff (rat M1 Y381A receptor; [8]): 23%
11 | 3.55 | 4.16 | CCCCC1CCN(C[C@@H](C)CN2C(=O)COc3ccccc32)CC1.O=C(O)C(=O)O | 
12 | 2.41 | 2.86 | CCCCC1CCN(CCCN2C(=O)COc3ccc(C(C)=O)cc32)CC1 | 
13 | 3.35 | 2.87 | COCCC1CCN(CCCn2c(=O)sc3ccccc32)CC1.O=C(O)C(=O)O | 
14 | 3.18 | 2.58 | CC(C)COc1ccc(CC(=O)N(Cc2ccc(F)cc2)C2CCN(CCCN3C(=O)OC[C@@H]3C(C)C)CC2)cc1.O=C(O)C(=O)O | 
15 | 2.60 | 2.36 | CCCCC1CCN(CCCn2c(=O)oc3c(Cl)cc(Cl)c(Cl)c32)CC1.O=C(O)C(=O)O | 
16 | 3.74 | 3.93 | CCCCC1CCN(C[C@@H](C)CN2C(=O)CCc3ccccc32)CC1.O=C(O)C(=O)O | 
17 | 3.60 | 3.13 | CCCCC1CCN(CCCN2C(=O)CCc3ccccc32)CC1.O=C(O)C(=O)O | 
18 | 2.83 | 2.70 | CCOCCC1CCN(CCCn2c(=O)[nH]c3ccccc32)CC1.O=C(O)C(F)(F)F | 
19 |  |  | CN1CCN(C2=Nc3ccccc3Oc3ccc(Cl)cc32)CC1.O=C(O)CCC(=O)O [Loxapine] | % Eff [3, 7]: 3%; EC50 (rat M1 Y381A receptor; Table 10, M1 Y381A, NA = non-active, read-out: pEC50 (converted)): 1260 nM; % Eff (rat M1 Y381A receptor; [8]): 165%
20 | 4.63 | 4.14 | CCCOC1CCN(C[C@@H](C)CN2C(=O)COc3ccccc32)CC1.O=C(O)C(=O)O | 
21 | 4.65 | 3.90 | CCCOC1CCN(CCCn2c(=O)ccc3ccccc32)CC1 | 
22 |  |  | C[N+]1(C)[C@@H]2C[C@@H](OC(=O)[C@H](CO)c3ccccc3)C[C@H]1[C@@H]1O[C@@H]12 [NMS] | inhib (M1 Y381A receptor): 36%
23 | 4.44 | 4.11 | CCCOC1CCN(C[C@@H](C)CN2C(=O)CCc3ccccc32)CC1.O=C(O)C(=O)O | 
24 | 4.51 | 4.15 | CCCOC1CCN(C[C@@H](C)CN2C(=O)COc3ccccc32)CC1 | 
25 |  |  | C[N+]1(C)[C@@H]2CC(OC(=O)[C@H](CO)c3ccccc3)C[C@H]1[C@@H]1O[C@@H]12 (some centres unmarked) [^3H-NMS, 1-[N-methyl-^3H]Scopolamine methyl chloride] | binding of ^3H-NMS to receptor (M1 Y381 mutant receptor): not to the Y381 mutant receptor
